In US10072027B2, “Preparation of high-purity gadobutrol” (BAYER INTELLECTUAL PROPERTY GMBH, priority 2011, dated 2018):

What was measured:
Assay type in all cases: physicochemical
[1] = Solubility of polymorphs I and II in water; settings: for Solubility in water: at 20° C. in water
[2] = Stability on storage under ICH conditions
Description: Three batches of monohydrate I and one batch of monohydrate II were stored under ICH conditions. […] No decomposition products were observed, and no other parameters of the specification were changed substantially. On storage, the batches maintained their solid state.

[3] = Dissolution of the active compound during preparation of the pharmaceutical
Procedure: Differences between the two monohydrates I and II were observed during dissolution of the active compound. In general, the time required to get monohydrate I into solution is 45 minutes at 40-50° C.

[4] = 6 months at 40° C./75% relative atmospheric humidity
[5] = 36 months at 25° C./60% relative atmospheric humidity
[6] = 36 months at 30° C./75% relative atmospheric humidity

Compound	Solubility in water (in words) ([1]; water)	Stability on storage [2, 4]	Stability on storage [2, 5]	Stability on storage [2, 6]	dissolution state during the time monohydrate I needs ([3]; 45 minutes at 40-50° C.)	Solubility in water [1] [mg/mL]	time required to get into solution ([3]; at 40-50° C.) [min]
O=C([O-])CN1CCN(CC(=O)[O-])CCN(C(CO)C(O)CO)CCN(CC(=O)[O-])CC1.[Gd+3] (centres unmarked) [gadobutrol, Gd complex of N-(1-hydroxymethyl-2,3-dihydroxypropyl)-1,4,7-triscarboxymethyl-1,4,7,10-tetraazacyclododecane]	soluble in water in almost any ratio	–	–	–	–	–	–
O.O=C([O-])CN1CCN(CC(=O)[O-])CCN([C@H](CO)[C@H](O)CO)CCN(CC(=O)[O-])CC1.[Gd+3] [monohydrate II]	–	remained unchanged	remained unchanged	remained unchanged	incompletely dissolved	922 ± 9	–
O.O=C([O-])CN1CCN(CC(=O)[O-])CCN([C@H](CO)[C@H](O)CO)CCN(CC(=O)[O-])CC1.[Gd+3] [monohydrate I]	–	remained unchanged	remained unchanged	remained unchanged	–	1081 ± 2	45
